Test results as given in PMC4774911, “Biochemical Screening of Five Protein Kinases from Plasmodium falciparum against 14,000 Cell-Active Compounds” (PLoS ONE, 2016).
pIC50: −log10 of the molar value. Several values for one entry are separate records, joined by “and”; a condition that tells them apart may be missing. Identical values can stand only once.

Assays:
Test in all cases: biochemical
PRKAA1 = PRKAA1 (Homo sapiens, UniProt Q13131)
MAPKAPK5 = biological target: T1, MAPKAPK5 (Homo sapiens, UniProt Q8IW41)
T1 sequence (Q8IW41 1-473): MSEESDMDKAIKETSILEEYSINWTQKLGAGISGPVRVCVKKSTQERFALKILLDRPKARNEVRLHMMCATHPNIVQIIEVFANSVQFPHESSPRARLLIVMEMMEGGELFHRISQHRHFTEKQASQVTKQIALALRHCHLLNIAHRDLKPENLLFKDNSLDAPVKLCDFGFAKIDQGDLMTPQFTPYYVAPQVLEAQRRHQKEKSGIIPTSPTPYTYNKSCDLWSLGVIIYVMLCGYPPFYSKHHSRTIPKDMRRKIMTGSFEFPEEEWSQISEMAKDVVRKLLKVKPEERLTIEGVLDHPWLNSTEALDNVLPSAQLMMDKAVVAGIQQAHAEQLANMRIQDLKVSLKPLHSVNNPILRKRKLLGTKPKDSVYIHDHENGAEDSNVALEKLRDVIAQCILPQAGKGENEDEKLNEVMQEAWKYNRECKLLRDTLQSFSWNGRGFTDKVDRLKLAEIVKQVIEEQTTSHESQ

IKBKE = biological target: T2, IKBKE (Homo sapiens, UniProt Q14164)
T2 sequence (Q14164 1-716): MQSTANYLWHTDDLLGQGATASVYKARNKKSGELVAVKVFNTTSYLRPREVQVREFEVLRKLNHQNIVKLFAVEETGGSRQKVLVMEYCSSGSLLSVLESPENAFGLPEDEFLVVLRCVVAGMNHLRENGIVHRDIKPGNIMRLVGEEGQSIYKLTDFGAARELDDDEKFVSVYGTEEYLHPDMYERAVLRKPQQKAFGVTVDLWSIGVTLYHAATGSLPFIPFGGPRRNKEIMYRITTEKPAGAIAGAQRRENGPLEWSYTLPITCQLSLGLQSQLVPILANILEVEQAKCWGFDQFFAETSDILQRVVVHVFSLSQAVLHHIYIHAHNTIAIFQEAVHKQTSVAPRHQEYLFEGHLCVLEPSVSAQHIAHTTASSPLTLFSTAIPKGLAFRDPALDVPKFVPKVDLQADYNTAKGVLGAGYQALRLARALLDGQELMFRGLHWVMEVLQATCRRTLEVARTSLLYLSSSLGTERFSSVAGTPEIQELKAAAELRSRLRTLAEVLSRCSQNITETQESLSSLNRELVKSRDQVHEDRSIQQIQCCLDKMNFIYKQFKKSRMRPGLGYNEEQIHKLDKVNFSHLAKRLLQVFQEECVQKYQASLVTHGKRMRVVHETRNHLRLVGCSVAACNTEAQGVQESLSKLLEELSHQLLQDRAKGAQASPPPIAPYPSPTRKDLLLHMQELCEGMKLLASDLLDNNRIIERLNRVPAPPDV

STK17B = STK17B (Homo sapiens, UniProt O94768)
MAP2K3 = MAP2K3 (Homo sapiens, UniProt P46734)
MAPK6 = MAPK6 (Homo sapiens, UniProt Q16659)
ACVR2B = ACVR2B (Homo sapiens, UniProt Q13705)
RPS6KA1 = RPS6KA1 (Homo sapiens, UniProt Q15418)
CDK6 = CDK6 (Homo sapiens, UniProt Q00534)
MINK1 = MINK1 (Homo sapiens, UniProt Q8N4C8)
STK4 = biological target: T3, STK4 (Homo sapiens, UniProt Q13043)
T3 sequence (Q13043 1-487): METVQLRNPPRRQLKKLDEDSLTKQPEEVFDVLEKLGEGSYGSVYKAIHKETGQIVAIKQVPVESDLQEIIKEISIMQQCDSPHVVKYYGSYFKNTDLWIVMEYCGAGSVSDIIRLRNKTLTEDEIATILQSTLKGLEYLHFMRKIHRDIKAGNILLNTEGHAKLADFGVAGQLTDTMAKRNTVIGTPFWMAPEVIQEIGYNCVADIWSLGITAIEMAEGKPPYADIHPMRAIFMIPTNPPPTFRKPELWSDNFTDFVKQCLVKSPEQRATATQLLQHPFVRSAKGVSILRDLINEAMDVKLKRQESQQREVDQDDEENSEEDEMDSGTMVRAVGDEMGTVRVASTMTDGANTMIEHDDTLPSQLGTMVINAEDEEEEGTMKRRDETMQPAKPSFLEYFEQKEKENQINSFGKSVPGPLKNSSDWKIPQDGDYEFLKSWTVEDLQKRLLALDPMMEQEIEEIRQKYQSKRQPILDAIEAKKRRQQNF

CDK6, sequence (Q00534 whole entry): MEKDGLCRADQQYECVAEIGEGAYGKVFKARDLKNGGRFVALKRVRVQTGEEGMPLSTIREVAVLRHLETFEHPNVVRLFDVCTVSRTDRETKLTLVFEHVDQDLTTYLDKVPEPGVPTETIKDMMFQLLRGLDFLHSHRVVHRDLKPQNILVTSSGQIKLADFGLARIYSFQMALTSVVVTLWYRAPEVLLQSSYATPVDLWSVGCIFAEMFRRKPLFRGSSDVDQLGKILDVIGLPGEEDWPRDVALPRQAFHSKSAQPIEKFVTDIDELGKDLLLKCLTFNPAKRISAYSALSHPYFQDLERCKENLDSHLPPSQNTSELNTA
PRKAA1, sequence (Q13131 whole entry): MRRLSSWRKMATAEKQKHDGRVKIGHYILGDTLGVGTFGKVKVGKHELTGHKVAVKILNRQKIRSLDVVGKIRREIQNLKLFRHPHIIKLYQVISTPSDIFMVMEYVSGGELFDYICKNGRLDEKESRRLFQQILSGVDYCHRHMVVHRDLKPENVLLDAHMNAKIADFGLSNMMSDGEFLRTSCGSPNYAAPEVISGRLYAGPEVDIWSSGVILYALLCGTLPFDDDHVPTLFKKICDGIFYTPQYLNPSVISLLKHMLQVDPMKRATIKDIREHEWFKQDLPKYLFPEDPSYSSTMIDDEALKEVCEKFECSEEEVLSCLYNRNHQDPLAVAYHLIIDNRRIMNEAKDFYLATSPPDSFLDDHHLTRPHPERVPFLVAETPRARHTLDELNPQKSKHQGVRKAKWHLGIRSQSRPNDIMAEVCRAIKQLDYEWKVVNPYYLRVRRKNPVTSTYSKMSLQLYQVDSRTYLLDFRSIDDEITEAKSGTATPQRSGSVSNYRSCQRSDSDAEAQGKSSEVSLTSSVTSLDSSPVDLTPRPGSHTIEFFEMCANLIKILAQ
ACVR2B, sequence (Q13705 whole entry): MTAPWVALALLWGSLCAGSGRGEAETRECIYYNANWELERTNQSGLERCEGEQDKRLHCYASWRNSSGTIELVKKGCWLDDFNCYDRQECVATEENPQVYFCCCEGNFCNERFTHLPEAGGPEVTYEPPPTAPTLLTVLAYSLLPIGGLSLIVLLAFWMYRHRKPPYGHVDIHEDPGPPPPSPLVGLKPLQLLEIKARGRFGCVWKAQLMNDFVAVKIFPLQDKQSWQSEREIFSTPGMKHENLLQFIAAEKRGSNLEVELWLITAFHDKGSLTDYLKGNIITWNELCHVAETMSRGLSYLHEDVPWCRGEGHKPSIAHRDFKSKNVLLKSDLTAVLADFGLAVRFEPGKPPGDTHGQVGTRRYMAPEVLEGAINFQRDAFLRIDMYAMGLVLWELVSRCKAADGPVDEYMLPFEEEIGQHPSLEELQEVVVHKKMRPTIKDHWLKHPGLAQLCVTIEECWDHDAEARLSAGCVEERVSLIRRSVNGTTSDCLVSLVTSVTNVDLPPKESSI
MAPK6, sequence (Q16659 whole entry): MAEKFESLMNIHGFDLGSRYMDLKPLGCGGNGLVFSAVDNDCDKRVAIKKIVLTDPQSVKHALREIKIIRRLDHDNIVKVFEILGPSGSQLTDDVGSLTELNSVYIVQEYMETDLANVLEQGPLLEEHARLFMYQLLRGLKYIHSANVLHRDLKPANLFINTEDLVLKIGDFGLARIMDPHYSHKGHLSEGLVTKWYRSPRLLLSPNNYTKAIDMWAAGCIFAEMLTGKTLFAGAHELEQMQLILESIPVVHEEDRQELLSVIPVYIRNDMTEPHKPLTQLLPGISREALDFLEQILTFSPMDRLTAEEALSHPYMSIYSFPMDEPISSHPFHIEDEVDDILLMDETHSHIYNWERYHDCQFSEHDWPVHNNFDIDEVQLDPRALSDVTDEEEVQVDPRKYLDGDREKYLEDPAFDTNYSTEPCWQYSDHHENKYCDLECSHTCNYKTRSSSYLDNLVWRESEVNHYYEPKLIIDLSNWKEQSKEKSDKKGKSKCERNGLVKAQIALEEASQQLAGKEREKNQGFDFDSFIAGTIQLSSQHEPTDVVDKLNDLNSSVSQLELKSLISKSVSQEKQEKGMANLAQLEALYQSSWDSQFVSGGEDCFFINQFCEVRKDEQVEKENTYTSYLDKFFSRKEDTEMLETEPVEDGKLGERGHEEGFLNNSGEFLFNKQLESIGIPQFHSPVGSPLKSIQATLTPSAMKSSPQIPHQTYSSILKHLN
RPS6KA1, sequence (Q15418 whole entry): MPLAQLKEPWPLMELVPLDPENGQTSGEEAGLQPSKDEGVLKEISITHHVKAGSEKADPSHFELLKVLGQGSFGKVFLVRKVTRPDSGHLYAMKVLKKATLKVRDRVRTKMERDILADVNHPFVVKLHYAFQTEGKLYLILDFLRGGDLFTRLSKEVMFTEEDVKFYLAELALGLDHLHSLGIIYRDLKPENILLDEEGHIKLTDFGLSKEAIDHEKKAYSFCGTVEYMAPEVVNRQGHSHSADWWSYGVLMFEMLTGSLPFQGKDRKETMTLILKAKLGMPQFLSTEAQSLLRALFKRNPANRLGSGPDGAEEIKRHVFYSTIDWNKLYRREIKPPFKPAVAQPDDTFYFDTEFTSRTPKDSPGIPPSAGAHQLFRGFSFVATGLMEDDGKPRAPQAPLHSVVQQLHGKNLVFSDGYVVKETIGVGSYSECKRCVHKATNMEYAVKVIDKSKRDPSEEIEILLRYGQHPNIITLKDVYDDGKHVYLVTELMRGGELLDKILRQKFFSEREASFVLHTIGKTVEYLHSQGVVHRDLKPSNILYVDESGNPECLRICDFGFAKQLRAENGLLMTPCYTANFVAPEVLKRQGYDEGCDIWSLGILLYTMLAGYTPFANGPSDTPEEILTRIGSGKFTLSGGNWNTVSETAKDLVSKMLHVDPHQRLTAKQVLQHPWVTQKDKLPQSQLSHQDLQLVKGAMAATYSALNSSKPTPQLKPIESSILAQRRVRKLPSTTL
MAP2K3, sequence (P46734 whole entry): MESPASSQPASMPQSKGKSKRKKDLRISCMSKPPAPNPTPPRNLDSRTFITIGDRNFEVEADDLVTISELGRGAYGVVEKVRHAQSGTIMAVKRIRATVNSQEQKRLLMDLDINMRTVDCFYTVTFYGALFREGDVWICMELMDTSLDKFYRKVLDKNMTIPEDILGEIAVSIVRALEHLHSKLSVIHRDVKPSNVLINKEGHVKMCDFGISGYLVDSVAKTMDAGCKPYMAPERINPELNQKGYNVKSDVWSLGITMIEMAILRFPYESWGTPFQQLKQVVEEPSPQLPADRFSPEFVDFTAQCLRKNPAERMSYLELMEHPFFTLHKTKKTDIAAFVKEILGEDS
MINK1, sequence (Q8N4C8 whole entry): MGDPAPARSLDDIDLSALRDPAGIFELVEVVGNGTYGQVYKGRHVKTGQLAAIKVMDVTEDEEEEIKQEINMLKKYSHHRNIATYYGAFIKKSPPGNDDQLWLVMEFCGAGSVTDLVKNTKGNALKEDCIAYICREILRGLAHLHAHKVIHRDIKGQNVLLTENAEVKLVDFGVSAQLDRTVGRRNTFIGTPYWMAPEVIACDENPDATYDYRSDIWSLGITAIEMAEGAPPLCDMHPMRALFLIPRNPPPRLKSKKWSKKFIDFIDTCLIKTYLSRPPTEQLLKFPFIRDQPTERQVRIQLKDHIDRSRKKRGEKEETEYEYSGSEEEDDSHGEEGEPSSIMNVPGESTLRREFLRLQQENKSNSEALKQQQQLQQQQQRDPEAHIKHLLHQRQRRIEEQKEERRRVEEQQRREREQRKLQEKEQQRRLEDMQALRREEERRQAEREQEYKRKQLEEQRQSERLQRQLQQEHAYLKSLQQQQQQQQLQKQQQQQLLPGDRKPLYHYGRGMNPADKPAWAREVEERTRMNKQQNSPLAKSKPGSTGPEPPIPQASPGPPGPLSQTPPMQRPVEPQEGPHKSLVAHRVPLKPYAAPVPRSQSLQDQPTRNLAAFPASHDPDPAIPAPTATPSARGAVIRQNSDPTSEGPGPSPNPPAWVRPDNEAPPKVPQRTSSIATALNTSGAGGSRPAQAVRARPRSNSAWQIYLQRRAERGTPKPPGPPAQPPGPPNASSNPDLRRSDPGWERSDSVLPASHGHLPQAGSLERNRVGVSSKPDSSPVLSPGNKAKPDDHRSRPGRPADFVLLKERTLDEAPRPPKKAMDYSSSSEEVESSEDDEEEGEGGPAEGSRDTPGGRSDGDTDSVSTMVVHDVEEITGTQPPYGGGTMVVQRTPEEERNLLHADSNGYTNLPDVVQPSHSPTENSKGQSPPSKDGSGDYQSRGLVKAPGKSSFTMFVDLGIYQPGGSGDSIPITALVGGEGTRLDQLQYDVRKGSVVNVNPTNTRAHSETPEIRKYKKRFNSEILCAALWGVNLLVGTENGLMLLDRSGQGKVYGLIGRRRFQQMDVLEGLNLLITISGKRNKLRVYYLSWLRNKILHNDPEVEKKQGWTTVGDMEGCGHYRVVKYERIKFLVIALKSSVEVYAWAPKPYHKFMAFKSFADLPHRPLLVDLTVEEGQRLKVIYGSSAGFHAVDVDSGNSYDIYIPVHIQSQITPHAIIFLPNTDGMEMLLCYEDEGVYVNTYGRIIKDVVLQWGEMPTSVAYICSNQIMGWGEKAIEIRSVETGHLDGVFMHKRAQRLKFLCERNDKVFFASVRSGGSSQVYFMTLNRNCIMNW
STK17B, sequence (O94768 whole entry): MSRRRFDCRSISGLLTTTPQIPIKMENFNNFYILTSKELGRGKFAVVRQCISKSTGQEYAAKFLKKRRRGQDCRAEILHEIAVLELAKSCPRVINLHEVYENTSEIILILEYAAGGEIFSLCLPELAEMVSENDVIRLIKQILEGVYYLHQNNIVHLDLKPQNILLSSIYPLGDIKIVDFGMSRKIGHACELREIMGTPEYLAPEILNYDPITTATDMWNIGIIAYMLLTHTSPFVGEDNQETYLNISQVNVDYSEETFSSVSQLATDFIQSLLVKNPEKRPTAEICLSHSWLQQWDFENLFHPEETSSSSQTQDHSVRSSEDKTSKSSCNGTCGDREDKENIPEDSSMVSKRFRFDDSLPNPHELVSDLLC

SMILES | pIC50 (PRKAA1) | pIC50 (MAPKAPK5) | pIC50 (IKBKE) | pIC50 (STK17B) | pIC50 (MAP2K3) | pIC50 (MAPK6) | pIC50 (ACVR2B) | pIC50 (RPS6KA1) | pIC50 (CDK6) | pIC50 (MINK1) | pIC50 (STK4)
CN(C)CC(O)COc1ccc(Nc2ncc([N+](=O)[O-])c(Nc3ccccc3O)n2)cc1.O=C(O)C(F)(F)F (stereo not shown) [TCMDC-141399] | 5.15 and 5.11 | 6.49 | < 4.70 | < 4.70 | < 4.70 | 6.49 | < 4.70 |  |  |  | 
Cl.NCC1(c2nc(-c3ccc(Cl)c(O)c3)c(-c3ccncc3)[nH]2)CCCCC1 [TCMDC-141154] |  | < 4.70 |  | < 4.70 | < 4.70 | < 4.70 |  | < 4.70 | < 4.70 | 5.85 | < 4.70
CN1CCN(c2ccc(Nc3ncc(C#N)c(Nc4ccccc4C(N)=O)n3)cc2)CC1.Cl [TCMDC-134116] | 7.42 and 7.31 |  | 5.74 |  |  |  | < 4.70 | 6.82 | 6.80 and 6.74 | 6.54 | 6.72 and 6.66
